Peptide text beside a SMILES is read from it.
Key:
Ubc9 (WT) = target: T1, Ubc9 (WT) (Homo sapiens, UniProt P63279); assay: ITC binding of sumoylation-motif peptides to WT Ubc9; details: 25 °C, pH 8.0, 20 mM potassium phosphate, 100 mM NaCl, 1:1 binding stoichiometry assumed, triplicate measurements
T1 construct: made in house; host or cells: E. coli (stated as BL21 (DE3) for the acetylated variant)
Protocol: (§1) ITC binding experiments were used to quantify the effect of Ubc9 acetylation on NDSM substrate binding (Fig. 2A). […] The dissociation constants for Elk1 and CBP were 70 and 57 μM, respectively (Fig. 2C and D), which were roughly similar to the dissociation constant of 56 μM obtained for the more acidic Calpain2 (Fig. 2E). Contrary to our expectations, RanGAP1 bound more strongly than the NDSMs with a dissociation constant of 13 μM. […] Similarly, not every acidic residue from the NDSM contributed equally to Ubc9 binding and even positions ×1 and ×2 could be potentially deciding factors. We exploited the long acidic stretch of Calpain2 in additional studies described below to explain this phenomenon. […] The observed switching from exothermic versus endothermic binding of the NDSM versus SM containing peptides is surprising. We speculate that the long negatively charged tail of NDSM may interact with Ubc9 in such a way that it free up more Ubc9-bound water molecules, resulting in an overall entropy increase. More work need to be done to fully understand its implication in binding mechanism.
(§2) Figure 2 Effect of K65 acetylation on Ubc9 affinity for substrates. (A) Summary of the thermodynamic parameters obtained from triplicate isothermal titration calorimetry (ITC) measurements. Representative ITC thermograms for Ubc9 binding to the RanGAP1 (B), Elk1 (C), CBP (D), and Calpain2 (E) peptides. The heat absorbed (or released) post-injection, after correcting for the heat of dilution, is shown in lower panels. […]
(§3) The ITC experiments were repeated twice at 25 °C by a controlled 2 μl addition of peptide to 200 μl of WT or Ac-Ubc9K65 in pH 8.0 buffer containing 20 mM potassium phosphate and 100 mM NaCl using an iTC200 calorimeter (GE Healthcare, Parsippany, NJ, USA). The first data point of each experiment was excluded from analysis and the baseline-corrected data were analyzed using Origin 7.0 software assuming 1:1 binding stoichiometry.

Ac-Ubc9K65 = target: T2, Ac-Ubc9K65 (Homo sapiens, UniProt P63279); assay: ITC binding of sumoylation-motif peptides to K65-acetylated Ubc9; details: 25 °C, pH 8.0, 20 mM potassium phosphate, 100 mM NaCl, 1:1 binding stoichiometry assumed, triplicate measurements
T2 construct: made in house; host or cells: E. coli BL21 (DE3) with pAcKRS-3 and pCDF PylT-1-Ubc9 (amber codon at K65), fed acetyl-lysine
T2 sequence (P63279 2-158): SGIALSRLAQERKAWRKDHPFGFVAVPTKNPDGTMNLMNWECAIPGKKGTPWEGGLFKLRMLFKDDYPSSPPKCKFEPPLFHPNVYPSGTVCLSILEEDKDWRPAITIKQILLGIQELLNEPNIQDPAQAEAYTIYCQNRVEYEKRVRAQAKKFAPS
Protocol: as §1, §2, §3

T1 sequence (P63279 whole entry): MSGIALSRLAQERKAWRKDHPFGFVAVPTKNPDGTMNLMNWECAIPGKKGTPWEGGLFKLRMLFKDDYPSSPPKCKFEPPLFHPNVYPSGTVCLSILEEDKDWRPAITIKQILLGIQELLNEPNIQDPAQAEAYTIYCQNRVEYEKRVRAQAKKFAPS

Kd (Ubc9 (WT)) [µM]	Kd (Ac-Ubc9K65) [µM]	Compound
13.5 ± 0.9	13.5 ± 2.2	CC[C@H](C)[C@H](NC(=O)[C@H](C)NC(=O)[C@H](CCCCN)NC(=O)[C@@H](NC(=O)[C@H](CCCCN)NC(=O)[C@H](CC(=O)O)NC(=O)[C@H](CCC(=O)O)NC(=O)[C@H](CO)NC(=O)[C@H](CCCCN)NC(=O)[C@H](CC(C)C)NC(=O)[C@H](CC(C)C)NC(=O)CNC(=O)[C@H](CCSC)NC(=O)[C@H](Cc1c[nH]cn1)NC(=O)[C@@H](NC(=O)[C@@H](N)CC(C)C)C(C)C)C(C)C)C(=O)N[C@@H](C)C(=O)N[C@@H](CC(N)=O)C(=O)N[C@@H](CC(C)C)C(=O)N[C@@H](Cc1ccc(O)cc1)C(=O)O [RanGAP1, reference compound] (H-LVHMGLLKSEDKVKAIANLY-OH)
57.4 ± 2.8	105	CC(C)[C@H](NC(=O)[C@H](CCC(=O)O)NC(=O)[C@@H](NC(=O)[C@H](CCCCN)NC(=O)[C@@H](NC(=O)[C@H](CCC(=O)O)NC(=O)[C@@H]1CCCN1C(=O)[C@H](CCCCN)NC(=O)[C@H](CCCCN)NC(=O)[C@H](CCC(=O)O)NC(=O)[C@@H](N)CC(=O)O)C(C)C)C(C)C)C(=O)N[C@@H](CCCCN)C(=O)N[C@@H](CCC(=O)O)C(=O)N[C@@H](CCC(=O)O)C(=O)N[C@@H](CCC(=O)O)C(=O)N[C@@H](CCC(=O)O)C(=O)N[C@@H](CO)C(=O)N[C@@H](CO)C(=O)N[C@@H](CO)C(=O)N[C@@H](CC(N)=O)C(=O)O [CBP] (H-DEKKPEVKVEVKEEEESSSN-OH)
70.2 ± 1.3	103	CC(C)C[C@H](NC(=O)[C@H](CCC(=O)O)NC(=O)[C@H](CCC(=O)O)NC(=O)[C@H](CCCCN)NC(=O)[C@@H]1CCCN1C(=O)CNC(=O)[C@H](CCC(=O)O)NC(=O)[C@@H](NC(=O)[C@H](CCCCN)NC(=O)[C@@H](NC(=O)[C@H](CCC(=O)O)NC(=O)[C@@H]1CCCN1C(=O)[C@@H]1CCCN1C(=O)[C@H](CC(C)C)NC(=O)[C@H](C)NC(=O)[C@@H](N)CCCNC(=N)N)C(C)C)C(C)C)C(=O)N[C@@H](CCC(=O)O)C(=O)N[C@H](C(=O)N[C@@H](C)C(=O)NCC(=O)O)C(C)C [Elk1] (H-RALPPEVKVEGPKEELEVAG-OH)
55.8 ± 3.3	80.3 ± 2.7	CC[C@H](C)[C@H](NC(=O)[C@H](CC(C)C)NC(=O)[C@H](Cc1ccc(O)cc1)NC(=O)[C@H](CCC(N)=O)NC(=O)[C@@H]1CCCN1)C(=O)N[C@@H](CCCCN)C(=O)N[C@@H](CC(C)C)C(=O)N[C@@H](CCC(=O)O)C(=O)N[C@@H](CCC(=O)O)C(=O)N[C@@H](CCC(=O)O)C(=O)N[C@@H](CC(=O)O)C(=O)N[C@@H](CCC(=O)O)C(=O)N[C@@H](CC(=O)O)C(=O)N[C@@H](CCC(=O)O)C(=O)N[C@@H](CCC(=O)O)C(=O)N[C@@H](CC(=O)O)C(=O)NCC(=O)N[C@@H](CCC(=O)O)C(=O)N[C@@H](CO)C(=O)NCC(=O)N[C@@H](CS)C(=O)N[C@H](C(=O)O)[C@@H](C)O [Calpain2] (H-PQYLIKLEEEDEDEEDGESGCT-OH)

— publication PMC5727262, “Molecular mechanism of K65 acetylation-induced attenuation of Ubc9 and the NDSM interaction” (Scientific Reports, 2017)
